Data set [1] is described as follows: Storage stability of triheptanoin oil. The note with it: stored at room temperature and protected from light. In kind it is physicochemical. From the text:
In some embodiments, the triheptanoin oil as described herein is a colorless oil of low viscosity and is odorless and tasteless. Triheptanoin oil as described herein is typically stored at room temperature and protected from light, and its stability can exceed 24 months under such conditions.

The nature of data set [2]: Single dose study, PK profile of triheptanoin and metabolites. Type of data set: in vivo. Particulars: single oral gavage dose, Day 1, mini-pigs. As to the method: Single dose study of each arm with full pharmacokinetics (PK) profile through 48 hours post dose was performed to determined when metabolites return to baseline (one week washout between each arm) as well as if acute release of gastrin and cholesystokinin (CCK) hormones cause spasmodic stomach contractions. Blood samples were collected from each arm 0-90 min plus anytime outside this window if gastric distress observed.
More specifically, animals (n=3/sex) were fasted prior to dose and fed 4 hrs post dose. Blood samples for PK analysis of triheptanoin and metabolites were collected pre-dose through 48 hrs post dose.
In FIGS. 1-21, animals were administered a single oral gavage dose level of a triheptanoin oil sample (i.e., the oil) or exemplary solid samples comprising triheptanoin oil in accordance with the present invention. The two exemplary solid compositions comprise 1) 60%:20%:20% of triheptanoin oil:Cab-O-Sil:cellulose acetate (i.e., the Powder-ER); and 2) 80%:20% of triheptanoin oil:Cab-O-Sil (i.e., the Powder), respectively.

The nature of data set [3]: Multiple dose study, metabolite PK profiles Day 1 and Day 7.
The next data set relates to mini-pigs. The data set is described as follows: Multiple dose study, vomiting and gastric distress observations.

Entries after “also recorded” stand apart in the source; their conditions may differ.

Take `CCCCCCC(=O)OCC(COC(=O)CCCCCC)OC(=O)CCCCCC` [triheptanoin oil, propane-1,2,3-triyl triheptanoate]: the stability result in data set [1] is recorded as “exceed 24 months”. The “levels of ketones (C4-OH, C5-OH)” value in data set [2] was “comparable levels of ketones”. In addition, in data set [3] (Day 1 and Day 7, mini-pigs), the Propionylglycine levels result is “essentially zero” and the pimelic acid levels entry is on record as “highest amount of pimelic acid”. Also, in data set [3] (mini-pigs), the “conversion of triheptanoin to C7” value is “All triheptanoin oil was converted to C7” and the triheptanoin levels result is “no triheptanoin values”. Also, the “vomiting or gastric distress observed” value in the data set on mini-pigs is reported as “Day 1: Animal #6501 vomited ˜3 hours post dose; also recorded: Day 1: Animal #6516 vomited ˜3 hours post dose; also recorded: Day 5: Animal #6509 gastric distressed observed”.

The values above are taken from patent US12551461B2, “Compositions of triglycerides and uses thereof” (Ultragenyx Pharmaceutical Inc., priority 2013, dated 2026).
